Columns and labels:
[1] = Kinetic thiol consumption assay with model thiol glutathione; type: physicochemical; parameters: Rate constant with glutathione (k(GSH)): unit not given here; settings: for Rate constant with glutathione (k(GSH)): 500 μM ligand, 5 μM thiol, phosphate buffer pH 8; for Rate constant with Glutathione: Protein: Glutathione, cysteine position NA, in h-1
Summary of the method: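 GSH 5 μM, degassed phosphate buffer pH 8, TCEP beads 2% v/v; acrylamide added; RT, 1 h; fluorescence ex/em 380/470 nm; normalized to DMSO/thiol control; k from first-order exponential decay fit.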

[2] = molecular target: T1, human cyclin-dependent kinase 2 (Cdk2) (Homo sapiens, UniProt P24941); experiment: Kinetic thiol consumption assay with wild type Cdk2 (C177); type: binding; parameters: key to Rate enhancement, Cdk2 WT: k(Cdk2) divided by k(model thiol); Rate constant with Cdk2 (k(Cdk2)): unit not given here; settings: for Rate constant with Cdk2 (k(Cdk2)): 500 μM ligand, 5 μM thiol, phosphate buffer pH 8; for k(Cdk2)/k(Cdk2_mut) rate enhancement: model thiol Cdk2[C177A, F80C, K278C]; for k(Cdk2)/k(GSH) rate enhancement: model thiol glutathione; for Rate enhancement, Cdk2 WT: no additional mutations; for Rate constant with Cdk2 WT: Protein: Cdk2, cysteine position WT, in h^-1
T1 construct: poly-histidine; made in house; host or cells: E. coli
Summary of the method: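 His-tagged human Cdk2 from E. coli (sole surface cysteine C177) or a model thiol, each 5 μM in degassed phosphate buffer pH 8 with immobilized TCEP, reacted with acrylamides at room temperature. Fluorescence (ex 380/em 470) normalized to DMSO/thiol control over time; first-order rate constants, Cdk2 rate divided by model-thiol rate.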

Cdk2[C177A, F80C, K278C] = molecular target: T2, Cdk2[C177A, F80C, K278C] (Homo sapiens, UniProt P24941, C177A/F80C/K278C); experiment: Kinetic thiol consumption assay with mutant Cdk2 as model thiol; type: binding; parameters: unit not given here; settings: 500 μM ligand, 5 μM thiol, phosphate buffer pH 8
T2 construct: poly-histidine; made in house; host or cells: E. coli
Method: A library of 120 acrylamides was screened against a) human cyclin-dependent kinase 2 (Cdk2, which contains one surface exposed cysteine residue—C177), prepared by cloning cDNA into the pRSETA bacterial expression vector to generate a poly-histidine tagged Cdk2 fusion that was purified from E. coli using standard techniques, and b) a model thiol (specific details are given below). The structures of these 120 acrylamides are set out in Table 1, above.
To wells containing 150 μL thiol (Cdk2 or model thiol) (5 μM) in degassed phosphate buffer (pH 8) was added immobilized TCEP beads (2% v/v).
After incubation of the fluorescence plates for 1 hour at room temperature, fluorescence measurements (excitation/emission of 380/470 nm) were taken on a PerkinElmer EnVision multilabel plate reader and processed with EnVision Workstation version 1.12.
Fluorescence measurements were normalized against a DMSO/thiol only control and plotted against time.
Rate constants were calculated using GraphPad software Prism version 6 by fitting a first order exponential decay to the data. The rate constant for each acrylamide with Cdk2 was divided by the rate constant for that fragment with the model thiol to provide the rate enhancement for each ligand candidate.
The model thiol used in Example 2 is a mutant form of human Cdk2 (C177A, F80C, K278C) which contains two engineered surface exposed cysteine residues. Mutations were introduced by site-directed mutagenesis and the resulting cDNA was cloned into the pRSETA bacterial expression vector to generate a poly-histidine tagged Cdk2 fusion that was purified from E. coli using standard techniques.

Cdk2(C177A, F80C) = molecular target: T3, Cdk2(C177A, F80C) (Homo sapiens, UniProt P24941, C177A/F80C); experiment: Kinetic thiol consumption assay with Cdk2 mutant F80C, incl. kobs versus concentration (Kd, k2); type: binding; parameters: key to Rate enhancement, Cdk2 F80C: Cdk2 rate constant divided by model-thiol rate constant; settings: additional mutation C177A; for Rate constant with Cdk2 F80C: Protein: Cdk2, cysteine position F80C, in h^-1
T3 construct: poly-histidine; made in house; host or cells: E. coli
Summary of the method: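 His-tagged Cdk2(C177A/F80C) from E. coli or model thiol, 5 μM in degassed phosphate buffer pH 8 with TCEP beads, reacted with acrylamide ligands; fluorescence (ex/em 380/470 nm) normalized to DMSO control and fitted to first-order decay for kobs. Kd and k2 obtained from hyperbolic fit of kobs versus ligand concentration.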

Cdk2(H71C) (C177A) = molecular target: T4, Cdk2(H71C) (C177A) (Homo sapiens, UniProt P24941, C177A/H71C); experiment: Kinetic thiol consumption assay with Cdk2 mutant H71C; type: binding; parameters: key to Rate enhancement, Cdk2 H71C: rate constant with Cdk2 ÷ rate constant with model thiol (fold); settings: additional mutation C177A; for Rate constant with Cdk2 H71C: Protein: Cdk2, cysteine position H71C, in h^-1
T4 construct: poly-histidine; made in house; host or cells: E. coli
Summary of the method: (§1)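 Thiol consumption was monitored kinetically using 5 μM Cdk2 (C177A plus one introduced cysteine) in degassed phosphate buffer at pH 8 with TCEP beads. Plates were kept 1 h at room temperature before fluorescence reading, and rate constants came from exponential decay fitting.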

Cdk2(S276C) (C177A) = molecular target: T5, Cdk2(S276C) (C177A) (Homo sapiens, UniProt P24941, C177A/S276C); experiment: Kinetic thiol consumption assay with Cdk2 mutant S276C; type: binding; parameters: key to Rate enhancement, Cdk2 S276C: rate constant with Cdk2 ÷ rate constant with model thiol (fold); settings: additional mutation C177A; for Rate constant with Cdk2 S276C: Protein: Cdk2, cysteine position S276C, in h^-1
T5 construct: poly-histidine; made in house; host or cells: E. coli
Summary of the method: as §1

Cdk2(N272C) (C177A) = molecular target: T6, Cdk2(N272C) (C177A) (Homo sapiens, UniProt P24941, C177A/N272C); experiment: Kinetic thiol consumption assay with Cdk2 mutant N272C; type: binding; parameters: key to Rate enhancement, Cdk2 N272: rate constant with Cdk2 ÷ rate constant with model thiol (fold); settings: for Rate enhancement, Cdk2 N272: Cdk2 N272, additional mutation C177A; for Rate constant with Cdk2 N272C: Protein: Cdk2, cysteine position N272C, additional mutation C177A, in h^-1
T6 construct: poly-histidine; made in house; host or cells: E. coli
Summary of the method: as §1

Cdk2(T182C) (C177A) = molecular target: T7, Cdk2(T182C) (C177A) (Homo sapiens, UniProt P24941, C177A/T182C); experiment: Kinetic thiol consumption assay with Cdk2 mutant T182C; type: binding; parameters: key to Rate enhancement, Cdk2 T182C: rate constant with Cdk2 ÷ rate constant with model thiol (fold); settings: additional mutation C177A; for Rate constant with Cdk2 T182C: Protein: Cdk2, cysteine position T182C, in h^-1
T7 construct: poly-histidine; made in house; host or cells: E. coli
Summary of the method: as §1

Cdk2(R122C) (C177A) = molecular target: T8, Cdk2(R122C) (C177A) (Homo sapiens, UniProt P24941, C177A/R122C); experiment: Kinetic thiol consumption assay with Cdk2 mutant R122C; type: binding; parameters: key to Rate enhancement, Cdk2 R122C: rate constant with Cdk2 ÷ rate constant with model thiol (fold); settings: additional mutation C177A; for Rate constant with Cdk2 R122C: Protein: Cdk2, cysteine position R122C, in h-1
T8 construct: poly-histidine; made in house; host or cells: E. coli
Summary of the method: as §1

Cdk2(S181C) (C177A) = molecular target: T9, Cdk2(S181C) (C177A) (Homo sapiens, UniProt P24941, C177A/S181C); experiment: Kinetic thiol consumption assay with Cdk2 mutant S181C; type: binding; parameters: key to Rate enhancement, Cdk2 S181C: rate constant with Cdk2 ÷ rate constant with model thiol (fold); settings: additional mutation C177A; for Rate constant with Cdk2 S181C: Protein: Cdk2, cysteine position S181C, in h^-1
T9 construct: poly-histidine; made in house; host or cells: E. coli
Summary of the method: as §1

SMILES | Rate constant with Cdk2 (k(Cdk2)) [2] | k(Cdk2)/k(Cdk2_mut) rate enhancement [2] | k(Cdk2)/k(GSH) rate enhancement [2] | Rate constant with Cdk2[C177A, F80C, K278C] (k(Cdk2_mut)) (Cdk2[C177A, F80C, K278C]) | Rate enhancement, Cdk2 WT [2] | Rate constant with Cdk2 WT [2] | Rate enhancement, Cdk2 F80C (Cdk2(C177A, F80C)) | Rate enhancement, Cdk2 H71C (Cdk2(H71C) (C177A)) | Rate constant with Cdk2 H71C (Cdk2(H71C) (C177A)) | Rate enhancement, Cdk2 S276C (Cdk2(S276C) (C177A)) | Rate constant with Cdk2 S276C (Cdk2(S276C) (C177A)) | Rate enhancement, Cdk2 N272 (Cdk2(N272C) (C177A)) | Rate constant with Cdk2 N272C (Cdk2(N272C) (C177A)) | Rate enhancement, Cdk2 T182C (Cdk2(T182C) (C177A)) | Rate constant with Cdk2 T182C (Cdk2(T182C) (C177A)) | Rate enhancement, Cdk2 R122C (Cdk2(R122C) (C177A)) | Rate constant with Cdk2 R122C (Cdk2(R122C) (C177A)) | Rate enhancement, Cdk2 S181C (Cdk2(S181C) (C177A)) | Rate constant with Cdk2 S181C (Cdk2(S181C) (C177A)) | Rate constant with glutathione (k(GSH)) [1] | other results
C=CC(=O)N1CCCCCC1C/C=C/c1ccccc1 (stereo not shown) [CA-096] | 0.0034 | 0.2652 | 0.3001 | 0.01283 |  |  |  |  |  |  |  |  |  |  |  |  |  |  |  | 0.01134 | 
C=CC(=O)N1CCC2(CC1)NC(=O)C1(CCCCC1)N2 [CA-129] | 0.00274 | 1.317 | 0.3553 | 0.00208 |  |  |  |  |  |  |  |  |  |  |  |  |  |  |  | 0.00771 | 
C=CC(=O)N(Cc1ccco1)Cc1ccco1 [CA-099] | 0.2899 | 18.23 | 1.26 | 0.0159 |  |  |  |  |  |  |  |  |  |  |  |  |  |  |  | 0.23 | 
C=CC(=O)N1CCn2c(C(=O)NC3CC3)ccc2C1C (stereo not shown) [CA-040] | 0.02965 | 0.9818 | 0.8399 | 0.0302 |  |  |  |  |  |  |  |  |  |  |  |  |  |  |  | 0.0353 | 
C=CC(=O)N(c1cccc2ncccc12)C1CCC1 [CA-032] | 0.02299 | 2.082 | 1.4 | 0.01104 |  |  |  |  |  |  |  |  |  |  |  |  |  |  |  | 0.01642 | 
C=CC(=O)N(C1CC1)C1CCCCC1C1CCCCC1 (stereo not shown) [CA-081] | 0.00879 | 1.851 | 5.108 | 0.00475 |  |  |  |  |  |  |  |  |  |  |  |  |  |  |  | 0.00172 | 
O=C(CCl)N1CCCCCC1 [EN011] |  |  |  |  | 0.6051 | 0.08018 | 0 | 0.08604 | 0.0114 | 1.075 | 0.1424 | 0.1463 | 0.01938 | 0.4574 | 0.06061 | 0.02161 | 0.002863 | 0.09796 | 0.01298 |  | Rate constant with Glutathione [1]: 0.1325

The next lines start with results.

Rate constant with Cdk2 (k(Cdk2)) [2] | k(Cdk2)/k(Cdk2_mut) rate enhancement [2] | k(Cdk2)/k(GSH) rate enhancement [2] | Rate constant with Cdk2[C177A, F80C, K278C] (k(Cdk2_mut)) (Cdk2[C177A, F80C, K278C]) | Rate enhancement, Cdk2 WT [2] | Rate constant with Cdk2 WT [2] | Rate enhancement, Cdk2 F80C (Cdk2(C177A, F80C)) | Rate enhancement, Cdk2 H71C (Cdk2(H71C) (C177A)) | Rate constant with Cdk2 H71C (Cdk2(H71C) (C177A)) | Rate enhancement, Cdk2 S276C (Cdk2(S276C) (C177A)) | Rate constant with Cdk2 S276C (Cdk2(S276C) (C177A)) | Rate enhancement, Cdk2 N272 (Cdk2(N272C) (C177A)) | Rate constant with Cdk2 N272C (Cdk2(N272C) (C177A)) | Rate enhancement, Cdk2 T182C (Cdk2(T182C) (C177A)) | Rate constant with Cdk2 T182C (Cdk2(T182C) (C177A)) | Rate enhancement, Cdk2 R122C (Cdk2(R122C) (C177A)) | Rate constant with Cdk2 R122C (Cdk2(R122C) (C177A)) | Rate enhancement, Cdk2 S181C (Cdk2(S181C) (C177A)) | Rate constant with Cdk2 S181C (Cdk2(S181C) (C177A)) | SMILES | Rate constant with glutathione (k(GSH)) [1] | other results
0.1611 | 0.9764 |  | 0.165 | 3.342 | 0.1611 | 1.938 | 0.5613 | 0.02706 | 0.934 | 0.04503 | 0.1844 | 0.008888 | 5.018 | 0.2419 | 0.491 | 0.02367 | 0.5323 | 0.02566 | C=CC(=O)Nc1ccccc1C#N [EL-1178] |  | Rate constant with Cdk2 F80C (Cdk2(C177A, F80C)): 0.09345
 |  |  |  | 1.315 | 0.002918 | 7.7693E−12 | 12.95 | 0.02873 | 74.76 | 0.1659 | 5.777 | 0.01282 | 34.33 | 0.07618 | 0.411 | 0.000912 | 4.709 | 0.01045 | O=C(c1ccccc1)[C@@H]1O[C@H]1c1ccccc1 [EN006] |  | Rate constant with Glutathione [1]: 0.002219; Rate constant with Cdk2 F80C (Cdk2(C177A, F80C)): 1.724E−14

Reference: patent publication US11415579B2, “Assay for measuring a rate of reaction between a target and a ligand candidate” (Imperial College Innovations Ltd., priority 2016, dated 2022)
